# In ChEMBL document CHEMBL5724914, “Linking interpersonal differences in gut microbiota composition and drug biotransformation activity” (2024):
# Where a SMILES comes first, the peptide text is derived from it. [ ]: non-standard residue; d: D form. pGlu = O=C1CC[C@@H](C(=O)O)N1; Thz = O=C(O)[C@@H]1CSCN1
# Assays:
# [1] = human gut metagenome, 24 h, 2 µM
# [2] = human gut metagenome, 24 h, 2 µM; remark: listed apart in the source
# [3] = (§1) The drug is tested on Z-023 corresponding to metagenome with ENA study accession number: PRJEB37062 and ENA sample accession number: ERS12561822 for biotransformation under anaerobic condition. The drug concentrations were measured over 9 timepoints collected between 0 and 24 hours of incubation by liquid-chromatography-coupled mass spectrometry (LC–MS); conditions: 2 µM
# [4] = as §1, with “Z-008” for “Z-023”, “ERS12561808” for “ERS12561822”; conditions: 2 µM
# [5] = human gut metagenome, 24 h, 2 µM; remark: listed apart in the source
# [6] = (§2) The drug is tested on Z-006 corresponding to mouse gut metagenome with ENA study accession number: PRJEB37062 and ENA sample accession number: ERS12561806 for biotransformation under anaerobic condition. The drug concentrations were measured over 9 timepoints collected between 0 and 24 hours of incubation by liquid-chromatography-coupled mass spectrometry (LC–MS); conditions: 2 µM
# [7] = as §2, with “Z-020” for “Z-006”, “rabbit” for “mouse”, “ERS12561819” for “ERS12561806”; conditions: 2 µM
# [8] = as §2, with “Z-013” for “Z-006”, “rabbit” for “mouse”, “ERS12561813” for “ERS12561806”; conditions: 2 µM
# [9] = as §1, with “Z-012” for “Z-023”, “ERS12561812” for “ERS12561822”; conditions: 2 µM
# [10] = as §2, with “Z-009” for “Z-006”, “pig” for “mouse”, “ERS12561809” for “ERS12561806”; conditions: 2 µM
# [11] = as §1, with “Z-005” for “Z-023”, “ERS12561805” for “ERS12561822”; conditions: 2 µM
# [12] = as §2, with “Z-024” for “Z-006”, “pig” for “mouse”, “ERS12561823” for “ERS12561806”; conditions: 2 µM
# [13] = human gut metagenome, 24 h, 2 µM; remark: listed apart in the source
# [14] = as §2, with “WLS-006” for “Z-006”, “human” for “mouse”, “ERS12561741” for “ERS12561806”; conditions: 2 µM
# [15] = human gut metagenome, 24 h, 2 µM; remark: listed apart in the source
# [16] = as §2, with “Z-029” for “Z-006”, “rat” for “mouse”, “ERS12561828” for “ERS12561806”; conditions: 2 µM
# [17] = as §2, with “WLS-038” for “Z-006”, “human” for “mouse”, “ERS12561745” for “ERS12561806”; conditions: 2 µM
# [18] = human gut metagenome, 24 h, 2 µM; remark: listed apart in the source
# [19] = human gut metagenome, 24 h, 2 µM; remark: listed apart in the source
# [20] = as §2, with “Z-016” for “Z-006”, “ERS12561815” for “ERS12561806”; conditions: 2 µM
# Note: call rule not given here.
smiles,measurement,setting,value
CCCC1O[C@@H]2C[C@H]3[C@@H]4CCC5=CC(=O)C=C[C@]5(C)[C@H]4[C@@H](O)C[C@]3(C)[C@]2(C(=O)CO)O1 (some centres not stated) [BUDESONIDE],Bacterial Biotransformation,[1],Compound metabolized
same,Bacterial Biotransformation,[2],Compound metabolized
same,Bacterial Biotransformation,[3],Compound NOT metabolized
same,Bacterial Biotransformation,[4],Compound metabolized
same,Bacterial Biotransformation,[5],Compound metabolized
same,Bacterial Biotransformation,[6],Compound NOT metabolized
same,Bacterial Biotransformation,[7],Compound NOT metabolized
same,Bacterial Biotransformation,[8],Compound metabolized
same,Bacterial Biotransformation,[9],Compound metabolized
same,Bacterial Biotransformation,[10],Compound metabolized
same,Bacterial Biotransformation,[11],Compound metabolized
same,Bacterial Biotransformation,[12],Compound metabolized
same,Bacterial Biotransformation,[13],Compound metabolized
same,Bacterial Biotransformation,[14],Compound metabolized
same,Bacterial Biotransformation,[15],Compound metabolized
same,Bacterial Biotransformation,[16],Compound NOT metabolized
same,Bacterial Biotransformation,[17],Compound metabolized
same,Bacterial Biotransformation,[18],Compound metabolized
same,Bacterial Biotransformation,[19],Compound metabolized
O=C(NCc1ccccc1)OCCO [BURAMATE],Bacterial Biotransformation,[1],Compound NOT metabolized
same,Bacterial Biotransformation,[2],Compound NOT metabolized
same,Bacterial Biotransformation,[3],Compound NOT metabolized
same,Bacterial Biotransformation,[4],Compound NOT metabolized
same,Bacterial Biotransformation,[5],Compound NOT metabolized
same,Bacterial Biotransformation,[6],Compound NOT metabolized
same,Bacterial Biotransformation,[8],Compound NOT metabolized
same,Bacterial Biotransformation,[9],Compound NOT metabolized
same,Bacterial Biotransformation,[10],Compound NOT metabolized
same,Bacterial Biotransformation,[11],Compound NOT metabolized
same,Bacterial Biotransformation,[12],Compound NOT metabolized
same,Bacterial Biotransformation,[13],Compound NOT metabolized
same,Bacterial Biotransformation,[14],Compound NOT metabolized
same,Bacterial Biotransformation,[15],Compound NOT metabolized
same,Bacterial Biotransformation,[16],Compound NOT metabolized
same,Bacterial Biotransformation,[20],Compound NOT metabolized
same,Bacterial Biotransformation,[17],Compound NOT metabolized
same,Bacterial Biotransformation,[18],Compound NOT metabolized
same,Bacterial Biotransformation,[19],Compound NOT metabolized
CCCCCCOC(=O)/N=C(/N)c1ccc(NCc2nc3cc(C(=O)N(CCC(=O)OCC)c4ccccn4)ccc3n2C)cc1.CS(=O)(=O)O [DABIGATRAN ETEXILATE MESYLATE],Bacterial Biotransformation,[3],Compound NOT metabolized
same,Bacterial Biotransformation,[4],Compound NOT metabolized
same,Bacterial Biotransformation,[5],Compound NOT metabolized
same,Bacterial Biotransformation,[6],Compound NOT metabolized
same,Bacterial Biotransformation,[7],Compound NOT metabolized
same,Bacterial Biotransformation,[8],Compound NOT metabolized
same,Bacterial Biotransformation,[9],Compound NOT metabolized
same,Bacterial Biotransformation,[10],Compound NOT metabolized
same,Bacterial Biotransformation,[11],Compound NOT metabolized
same,Bacterial Biotransformation,[12],Compound NOT metabolized
same,Bacterial Biotransformation,[16],Compound NOT metabolized
same,Bacterial Biotransformation,[20],Compound NOT metabolized
C[C@@H]1C[C@H]2[C@@H]3CCC4=CC(=O)C=C[C@]4(C)[C@@]3(F)[C@@H](O)C[C@]2(C)[C@@]1(O)C(=O)CO [DEXAMETHASONE],Bacterial Biotransformation,[1],Compound NOT metabolized
same,Bacterial Biotransformation,[2],Compound NOT metabolized
same,Bacterial Biotransformation,[3],Compound metabolized
same,Bacterial Biotransformation,[4],Compound NOT metabolized
same,Bacterial Biotransformation,[5],Compound NOT metabolized
same,Bacterial Biotransformation,[6],Compound NOT metabolized
same,Bacterial Biotransformation,[7],Compound metabolized
same,Bacterial Biotransformation,[8],Compound NOT metabolized
same,Bacterial Biotransformation,[9],Compound metabolized
same,Bacterial Biotransformation,[11],Compound metabolized
same,Bacterial Biotransformation,[12],Compound metabolized
same,Bacterial Biotransformation,[13],Compound NOT metabolized
same,Bacterial Biotransformation,[15],Compound NOT metabolized
same,Bacterial Biotransformation,[16],Compound NOT metabolized
same,Bacterial Biotransformation,[20],Compound NOT metabolized
same,Bacterial Biotransformation,[17],Compound NOT metabolized
same,Bacterial Biotransformation,[18],Compound NOT metabolized
same,Bacterial Biotransformation,[19],Compound NOT metabolized
O=c1[nH]c2ccccc2n1CCCN1CCC(n2c(=O)[nH]c3cc(Cl)ccc32)CC1 [DOMPERIDONE],Bacterial Biotransformation,[3],Compound NOT metabolized
same,Bacterial Biotransformation,[4],Compound NOT metabolized
same,Bacterial Biotransformation,[6],Compound NOT metabolized
same,Bacterial Biotransformation,[7],Compound NOT metabolized
same,Bacterial Biotransformation,[8],Compound NOT metabolized
same,Bacterial Biotransformation,[9],Compound NOT metabolized
same,Bacterial Biotransformation,[10],Compound NOT metabolized
same,Bacterial Biotransformation,[11],Compound NOT metabolized
same,Bacterial Biotransformation,[12],Compound NOT metabolized
same,Bacterial Biotransformation,[13],Compound NOT metabolized
same,Bacterial Biotransformation,[14],Compound NOT metabolized
same,Bacterial Biotransformation,[15],Compound NOT metabolized
same,Bacterial Biotransformation,[16],Compound NOT metabolized
same,Bacterial Biotransformation,[20],Compound NOT metabolized
same,Bacterial Biotransformation,[17],Compound NOT metabolized
same,Bacterial Biotransformation,[18],Compound NOT metabolized
same,Bacterial Biotransformation,[19],Compound NOT metabolized
c1ccc([C@H]2CN3CCSC3=N2)cc1 [LEVAMISOLE],Bacterial Biotransformation,[1],Compound metabolized
same,Bacterial Biotransformation,[2],Compound metabolized
same,Bacterial Biotransformation,[5],Compound NOT metabolized
same,Bacterial Biotransformation,[6],Compound metabolized
same,Bacterial Biotransformation,[7],Compound NOT metabolized
same,Bacterial Biotransformation,[8],Compound NOT metabolized
same,Bacterial Biotransformation,[9],Compound NOT metabolized
same,Bacterial Biotransformation,[13],Compound metabolized
same,Bacterial Biotransformation,[14],Compound metabolized
same,Bacterial Biotransformation,[15],Compound metabolized
same,Bacterial Biotransformation,[16],Compound NOT metabolized
same,Bacterial Biotransformation,[20],Compound NOT metabolized
same,Bacterial Biotransformation,[17],Compound metabolized
same,Bacterial Biotransformation,[18],Compound metabolized
same,Bacterial Biotransformation,[19],Compound metabolized
C#C[C@]1(O)CC[C@H]2[C@@H]3CCC4=CC(=O)CC[C@@H]4[C@H]3CC[C@@]21CC [LEVONORGESTREL],Bacterial Biotransformation,[1],Compound NOT metabolized
same,Bacterial Biotransformation,[2],Compound metabolized
same,Bacterial Biotransformation,[5],Compound metabolized
same,Bacterial Biotransformation,[6],Compound metabolized
same,Bacterial Biotransformation,[7],Compound metabolized
same,Bacterial Biotransformation,[8],Compound metabolized
same,Bacterial Biotransformation,[13],Compound metabolized
same,Bacterial Biotransformation,[14],Compound metabolized
same,Bacterial Biotransformation,[15],Compound metabolized
same,Bacterial Biotransformation,[16],Compound NOT metabolized
same,Bacterial Biotransformation,[18],Compound metabolized
same,Bacterial Biotransformation,[19],Compound metabolized
COc1c(C)c2c(c(O)c1C/C=C(\C)CCC(=O)OCCN1CCOCC1)C(=O)OC2 [MYCOPHENOLATE MOFETIL],Bacterial Biotransformation,[1],Compound NOT metabolized
same,Bacterial Biotransformation,[2],Compound metabolized
same,Bacterial Biotransformation,[3],Compound metabolized
same,Bacterial Biotransformation,[4],Compound metabolized
same,Bacterial Biotransformation,[5],Compound metabolized
same,Bacterial Biotransformation,[6],Compound metabolized
same,Bacterial Biotransformation,[8],Compound metabolized
same,Bacterial Biotransformation,[9],Compound metabolized
same,Bacterial Biotransformation,[10],Compound metabolized
same,Bacterial Biotransformation,[11],Compound metabolized
same,Bacterial Biotransformation,[12],Compound metabolized
same,Bacterial Biotransformation,[13],Compound metabolized
same,Bacterial Biotransformation,[14],Compound metabolized
same,Bacterial Biotransformation,[15],Compound metabolized
same,Bacterial Biotransformation,[16],Compound metabolized
same,Bacterial Biotransformation,[20],Compound metabolized
same,Bacterial Biotransformation,[17],Compound metabolized
same,Bacterial Biotransformation,[18],Compound metabolized
same,Bacterial Biotransformation,[19],Compound metabolized
O=C1CC[C@@H](C(=O)N2CSC[C@H]2C(=O)O)N1 [PIDOTIMOD] ([pGlu]-[Thz]-OH),Bacterial Biotransformation,[1],Compound NOT metabolized
same,Bacterial Biotransformation,[3],Compound metabolized
same,Bacterial Biotransformation,[5],Compound metabolized
same,Bacterial Biotransformation,[6],Compound NOT metabolized
same,Bacterial Biotransformation,[7],Compound NOT metabolized
same,Bacterial Biotransformation,[8],Compound NOT metabolized
same,Bacterial Biotransformation,[9],Compound NOT metabolized
same,Bacterial Biotransformation,[11],Compound metabolized
same,Bacterial Biotransformation,[12],Compound metabolized
same,Bacterial Biotransformation,[13],Compound NOT metabolized
same,Bacterial Biotransformation,[15],Compound NOT metabolized
same,Bacterial Biotransformation,[16],Compound NOT metabolized
same,Bacterial Biotransformation,[20],Compound NOT metabolized
same,Bacterial Biotransformation,[17],Compound metabolized
same,Bacterial Biotransformation,[18],Compound NOT metabolized
same,Bacterial Biotransformation,[19],Compound NOT metabolized
